Data: patent publication US6897298B2, “Method for extracting a compound from a ginseng spp. plant, ginseng or pseudo-ginseng” (priority 2001, dated 2005)
Read-outs that look alike come from different tables or passages of the source.

Tests used:
[1] = system: cerebral arteria embolisms/reperfusion injury rat model; experiment: Behavior change score (Longa method); format: in vivo; conditions: 5 hours after reperfusion
Method: (§1) Prepare cerebral arteria embolisms/reperfusion injury rat model according to Longna method. To bring the animal into a state of narcosis, give an intravenous injection of urethane (0.4 ml/100 g weight). Maintain body temperature of the rat at 37±0.5° C. (anal temperature). Let the rat lie on a plate with face toward the ceiling. Make a cut at the right middle of its neck. By means of microsurgery techniques, separate left neck communis and its branches. Isolate arteria carotis externa. By means of electric solidification, cut off occipital arteria, thyroid superia gland arteria, and arteria phyrynix externa, all of which are setting out from arteria carotis externa. Isolate arteria carotis externa further towards the head end. Tie the arteria carotis externa at a place as far as possible. Clamp the beginning part of the arteria carotis externa to make it close with an artery clamp. Tie a loose knot (with 5-0 silk thread going through the arteria carotis externa) at a place between the artery clamp and the tying thread. At a place close to the knot, cut to block the arteria carotis externa. Put into the arteria carotis externa a 3-0 nylon thread, which is 5 cm long and has a drumstick-like head. Tie a fast knot on the silk thread on the arteria crotis externa to avoid bleeding. Remove the arteria clamp. Push the nylon thread slowly into the arteria carotis externa. […]

[2] = system: cerebral ischemia/reperfusion injury rats; experiment: MDA content in cerebral tissue homogenate (TBA method); format: in vivo, rat; conditions: Compound (I) 50 mg/kg, Nimodipine 40 μg/kg iv; 5 h after reperfusion; salt-water group 87.7±27.5; p>0.05 vs normal group
[3] = Acute toxicity test; conditions: in vivo, Mouse
Description: Results of acute toxicity test for Compound (I) were: […]

[4] = system: cerebral arteria embolisms/reperfusion injury rat model; experiment: Scanning record of electroencephalogram after cerebral ischemia/reperfusion; format: in vivo; conditions: 1 h block
Method: as §1, with “externa.” for “externa. Put into the arteria carotis externa a 3-0 nylon thread, which is 5 cm long and has a drumstick-like head. Tie a fast knot on the silk thread on the arteria crotis externa to avoid bleeding. Remove the arteria clamp. Push the nylon thread slowly into the arteria carotis externa.”
One needle-type electrode was placed at top forehead. […] Electroencephalogram change outside of skin before and after obstruction was recorded with 8-lead physiological recorder made by Japan Optical-Electric Co.

[5] = system: cerebral arteria embolisms/reperfusion injury rat model; experiment: Measurement of water content in brain tissue; format: in vivo; conditions: Compound (I) intravenous injection
[6] = system: cerebral ischemia/reperfusion injury rats; experiment: SOD activity in cerebral tissue homogenate (pyrogallol self-oxidation method); format: in vivo, rat; conditions: Compound (I) 50 mg/kg, Nimodipine 40 μg/kg iv; 5 h after reperfusion; normal 70.30±24.7 u/g, salt-water 46.7±16.6 u/g
Method: 38 rats were used. After making cerebral ischemia/reperfusion injury, the rats were randomly divided into groups of contrast (equal volume of physiological salt-water), Nimodipine treatment (40 μg/kg), and Compound (I) treatment (50 mg/kg). […] After another 5 minutes, drug was given iv under tongue. 60 minutes after cerebral ischemia was made, reperfusion was made. After another 5 hours, rat brains were stripped off rapidly according to Gotoh Method. Right and left brain hemispheres were weighed respectively, and were kept in fridge at −70° C.
The tissue to be measured (about 0.3˜0.5) were washed clean with physiological salt-water. Then cold distilled water was used to prepare homogenate on a glass blender. Then centrifugal machine was set at 1,500 rpm to work for 15 minutes, the temperature being 0° C. […]
(1) SOD measurement (pyrogallol self-oxidation method): Take a 15 ml test tube. […] Change of absorbance is measured under conditions of: ultra-violet spectrophotometer (UV 1601 PC, Shimatsu Co., Japan), wavelength of 325 nm, and slit of 2. Then activity units are calculated according to the following formula: Tissue homogenate SOD(u/g cerebral tissue)=(control tube−sample tube)/control tube/0.5×1/cerebral tissue weight (g)

[7] = Physical and chemical properties: solubility; format: physicochemical; conditions: substance obtained in Example 1
Method: Physical and chemical property tests and element analysis were carried out for the substance. Also done were its mass spectra, infrared and ultraviolet spectrum, ^1H and ^13C nuclear magnetic resonance tests. The conditions and results were:
Physical and chemical properties: white or a little yellow powder. Melting point—209˜214° C.

[8] = Three kinds of experiments (disability, cancer, mutation)
Description: Therefore, its cure effects are good.

[9] = system: cerebral arteria embolisms/reperfusion injury rat model; experiment: Measurement of area of cerebral embolisms (TTC staining) after cerebral ischemia/reperfusion; format: in vivo
Method: as §1, with “thread.” for “thread. At a place close to the knot, cut to block the arteria carotis externa. Put into the arteria carotis externa a 3-0 nylon thread, which is 5 cm long and has a drumstick-like head. Tie a fast knot on the silk thread on the arteria crotis externa to avoid bleeding. Remove the arteria clamp. Push the nylon thread slowly into the arteria carotis externa.”
Open the cranium and take the whole brain. […] The area of obstructed cerebral tissue was measured with a fully automatic image analysis system (Model IPAS-C, Kontror Co, Germany). […] For this experiment, the average value of those measured of slices 2 and 3 were taken as the measured result for each animal's area of obstruction. […]

[10] = system: cerebral arteria embolisms/reperfusion injury rat model; experiment: Pathological exam of nerve cells and nerve fibers (HE, myelin staining); format: in vivo; conditions: iv 50 mg/kg, 10 mg/kg and 2 mg/kg; dosage-dependent
Method: as §1

[11] = system: Rats; conditions: for toxicity finding: iv 14 days

Compound	behavior scores (0-5) ([1]; salt-water contrast group 3.3±1.0, p>0.05)	MDA content [2]	LD50 ([3]; im, intramuscular injection, 95% confidence margin 564.77˜603.79 mg/kg)	LD50 ([3]; intravenous injection, 95% confidence margin 346.01˜366.64 mg/kg)	amplitude of electroencephalogram ([4]; 2 mg/kg dosage, 5 h after reperfusion)	amplitude of electroencephalogram ([4]; 50 mg/kg and 10 mg/kg, 5 h after reperfusion (p<0.01))	water content increase of cerebral tissue in blocked area [5]	SOD activity compared with normal contrast group (false surgery) [6]	behavior obstruction caused by cerebral injuries [1]	solubility [7]	causes disability, cancer, and mutation [8]	embolism (infarction) area of cerebral tissue ([9]; Compound (I) 2˜50 mg/kg iv, 1 h ischemia, 5 h after reperfusion, dosage dependent)	cure effects compared with Nimodipine ([9]; iv 50, 10 and 2 mg/kg, overall conclusion over all indexes)	degree of denaturalization of nerve fibers [10]	number of nerve cells of necrosis [10]	toxicity finding ([11]; 100 mg/kg)	toxicity finding ([11]; 10 and 30 mg/kg)	main toxic finding ([11]; iv injection for 14 days, injury correlated positively with dosage)
COCCOC(=O)C1=C(C)NC(C)=C(C(=O)OC(C)C)C1c1cccc([N+](=O)[O-])c1 (stereo not shown) [Nimodipine, reference compound]	2.9±1.2 scores	67.0±21.8 nmol/mg tissue weight	–	–	–	–	–	–	–	–	–	–	–	–	–	–	–	–
CC(C)=CCC[C@](C)(OCC1OC(CO)C(O)C(O)C1O)C1CC[C@]2(C)C1[C@H](O)CC1[C@@]3(C)CC[C@H](OC4OC(CO)C(O)C(O)C4OC4OC(CO)C(O)C(O)C4O)C(C)(C)C3CC[C@]12C (stereo partly drawn) [Compound (I), 20-(S)-protopanaxadiol-3-[O-β-D-glucopyranosyl (1→2)-β-D-glucopyranosyl]-20-O-β-D-glucopyranoside]	–	65.8±19 nmol/mg tissue weight	584 mg/kg	356 mg/kg	tendency of improvement of electroencephalogram, but there was no significant statistics difference	could improve electroencephalogram significantly	could significantly lower water content increase of cerebral tissue in blocked area	no significant statistics difference	could be significantly relieved	Very easy to dissolve in lower alcohol, acetone, chloroform, and hot water	does not have these side effects	could decrease embolism area of cerebellum tissue	better than that of active contrast drug Nimodipine	could relieve the degree of denaturalization of nerve fibers	could decrease the number of nerve cells of necrosis	poisonous dosage	minor local stimulation	inflammation of tail vein inner membrane
